Assay [1] has as its target α3β4 nAChRs (Homo sapiens, UniProt P30926+P32297). The settings on record: inhibits the function of α3β4 nAChRs; cited from earlier work.
Assay [2] concerns the target α4β2 nAChRs (Homo sapiens, UniProt P17787+P43681). Particulars: inhibits the function of α4β2 nAChRs; cited from earlier work.
Assay [3] deals with Akt Ser473. As to the kind of experiment: Western blot of phosphorylated Akt in CA1 of hippocampal slices. It is filed as cell-based, rat. Particulars: 1 μM DHβE alone, 20 min. For orientation: Immunoblotting shows a protein as a band on a membrane.
Experimental: For immunoassays of phosphorylated proteins, in the initial experiments slices were incubated in the same conditions as for PS determination. Later, the slices were incubated by being submerged in a static chamber on culture insets (Millicell; Millipore, Billerica, Mass.) to avoid drying during timed removal of slices.
Slices were prepared and maintained as described above. Treatments started after 2 hr of incubation in ACSF. […] At the corresponding time, each slice was removed and the CA1 region microdissected, frozen on dry ice, and stored at −80° C. until assayed. […] Final detection was carried out with enhance chemiluminescence methodology (Pierce Supersignal West Dura) and the intensity of the signal measured in a gel documentation system (Versa Doc Model 1000; Bio-Rad). […] Normalization of the signal of the phosphokinase to the total amount of proteins, measured by densitometry of the stained membrane, was used as the relevant parameter, which was the level of activity of the kinase. This method was validated with several isolated cells and tissues and determined a linear relationship between the amount of total protein (as measured by densitometry) and total kinases (as measured by chemiluminescence) within the range of proteins employed in these experiments (4-12 μg total protein). […]
Assay [4] deals with α3β4 (Homo sapiens, UniProt P30926+P32297). Particulars: cited from earlier work.
Sequence of α3β4 (P32297 32-505): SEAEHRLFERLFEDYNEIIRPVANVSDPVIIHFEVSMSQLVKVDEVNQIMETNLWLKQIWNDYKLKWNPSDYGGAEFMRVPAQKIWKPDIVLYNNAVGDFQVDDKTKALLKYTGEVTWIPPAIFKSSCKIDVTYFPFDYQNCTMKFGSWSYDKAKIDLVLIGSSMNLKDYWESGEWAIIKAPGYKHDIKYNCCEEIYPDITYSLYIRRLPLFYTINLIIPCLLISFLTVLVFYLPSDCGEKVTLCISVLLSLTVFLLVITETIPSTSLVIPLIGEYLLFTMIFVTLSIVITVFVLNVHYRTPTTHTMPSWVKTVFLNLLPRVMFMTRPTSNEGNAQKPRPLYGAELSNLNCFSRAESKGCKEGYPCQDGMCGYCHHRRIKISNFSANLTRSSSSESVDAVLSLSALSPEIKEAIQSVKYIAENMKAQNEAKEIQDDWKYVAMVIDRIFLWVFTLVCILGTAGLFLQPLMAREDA
Sequence of α3β4 (P30926 22-498): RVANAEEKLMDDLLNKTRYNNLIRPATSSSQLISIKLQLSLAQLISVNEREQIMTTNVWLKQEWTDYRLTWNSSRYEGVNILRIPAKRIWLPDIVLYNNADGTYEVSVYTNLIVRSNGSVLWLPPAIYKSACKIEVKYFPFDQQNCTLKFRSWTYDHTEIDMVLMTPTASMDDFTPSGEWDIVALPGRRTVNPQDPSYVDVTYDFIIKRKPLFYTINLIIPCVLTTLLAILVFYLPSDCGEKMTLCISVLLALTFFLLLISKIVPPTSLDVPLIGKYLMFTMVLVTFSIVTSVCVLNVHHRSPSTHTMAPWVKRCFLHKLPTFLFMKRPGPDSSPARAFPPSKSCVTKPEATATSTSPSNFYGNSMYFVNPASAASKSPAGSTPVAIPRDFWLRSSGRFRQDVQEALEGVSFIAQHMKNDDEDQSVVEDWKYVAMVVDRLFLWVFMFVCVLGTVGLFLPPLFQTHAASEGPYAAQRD
Assay [5] concerns the target α7 (Homo sapiens, UniProt P36544). Particulars: cited from earlier work.
Assay [6] has as its system CA1 neurons of hippocampal slices. As to the kind of experiment: Neuroprotection against NMDA excitotoxicity: recovery of population spikes in acute hippocampal slices. It is filed as cell-based, rat. The settings on record: for Effect on the neuroprotection caused by the substance: 10 μM PD98059: main target ERK-1,2 kinase; for effect of nifedipine on the neuroprotection: 10 μM nifedipine; for effect of PD98059 on the neuroprotection: 50 μM PD98059. How it is done: Male Sprague-Dawley rats (120-200 g) were maintained and sacrificed according to standard procedures reviewed and approved by the Institutional Animal Care and Use Committee. […] Briefly, hippocampi were dissected over ice; transversal 400-μm-thick slices were cut with a manual slicer and immediately transferred to the incubation chamber, thus preserving the neurons in their native environment. The chamber consisted of a temperature-controlled bath surrounding an acrylic plate covered with nylon mesh; the plate was divided into three lanes with independent perfusion. […] C. A bipolar electrode placed in the stratum radiatum was used to stimulate the Shaffer collateral incoming fibers with a constant current for 0.2 msec. The resulting population spike (PS) was recorded in stratum pyramidale with a glass electrode filled with 2 M NaCl, having an impedance of 1-5 M.OMEGA.
About 30 slices from the hippocampi of two rats were distributed equally among three lanes of an incubation chamber. A maximum of seven slices were analyzed per lane for each individual experiment, and on average 21 slices per condition were tested for each experimental condition. […] Because the neurons are maintained in their native environment and in contact with other cells, stimulation with the appropriate stimulus can elicit a PS. One hour after dissection, each slice was stimulated with a stimulus twice the strength required to elicit a threshold PS. This initial response was recorded as PS area (msec×mV) and compared to the final response elicited by the same stimulus strength recorded from the same position after the experimental treatment was finished. The slices were washed for 1 hr with normal ACSF to eliminate lingering drugs and any short-lived effects. […] The percentage of the initial response remaining at the end of the experiment was used as a measure of electrophysiological recovery.
The areas of PSs (mV/msec) were acquired and analyzed with the Labman program. The data were statistically analyzed with SigmaStat v2.03 (SPSS, Chicago, Ill.). One-way analysis of variance (ANOVA) was used whenever the data were distributed normally. […] In these cases, the less powerful nonparametric Kruskal-Wallis one-way ANOVA on ranks was used. The post-hoc test used was the Student-Newman-Keuls test for normally distributed data and Dunn's test for data that was not normally distributed.

Assay [7] has the same test system. The settings on record: cited from earlier work; for effect of DHβE on the neuroprotection (reported): 1 μM DHβE, 10 nM MLA.
The target of assay [8] is α7 nAChRs (Rattus norvegicus, UniProt Q05941). Particulars: against the α7 nAChRs; cited from earlier work.
Sequence of α7 nAChRs (Q05941 23-502): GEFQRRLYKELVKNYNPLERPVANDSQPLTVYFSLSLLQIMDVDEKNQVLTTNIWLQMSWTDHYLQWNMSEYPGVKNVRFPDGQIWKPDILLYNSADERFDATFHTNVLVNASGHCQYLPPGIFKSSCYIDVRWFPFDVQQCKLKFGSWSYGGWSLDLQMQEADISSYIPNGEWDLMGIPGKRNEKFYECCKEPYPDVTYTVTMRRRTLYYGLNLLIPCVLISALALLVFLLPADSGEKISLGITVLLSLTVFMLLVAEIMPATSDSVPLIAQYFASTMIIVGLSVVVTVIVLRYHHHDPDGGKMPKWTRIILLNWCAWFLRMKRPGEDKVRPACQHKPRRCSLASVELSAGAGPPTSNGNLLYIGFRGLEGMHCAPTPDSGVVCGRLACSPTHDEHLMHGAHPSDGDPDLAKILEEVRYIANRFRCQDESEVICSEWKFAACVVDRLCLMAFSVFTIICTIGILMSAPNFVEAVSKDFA
Assay [9] deals with NMDA receptors. The settings on record: against the NMDA receptors; cited from earlier work.

Sequence of α4β2 nAChRs (P43681 29-627 limits assumed): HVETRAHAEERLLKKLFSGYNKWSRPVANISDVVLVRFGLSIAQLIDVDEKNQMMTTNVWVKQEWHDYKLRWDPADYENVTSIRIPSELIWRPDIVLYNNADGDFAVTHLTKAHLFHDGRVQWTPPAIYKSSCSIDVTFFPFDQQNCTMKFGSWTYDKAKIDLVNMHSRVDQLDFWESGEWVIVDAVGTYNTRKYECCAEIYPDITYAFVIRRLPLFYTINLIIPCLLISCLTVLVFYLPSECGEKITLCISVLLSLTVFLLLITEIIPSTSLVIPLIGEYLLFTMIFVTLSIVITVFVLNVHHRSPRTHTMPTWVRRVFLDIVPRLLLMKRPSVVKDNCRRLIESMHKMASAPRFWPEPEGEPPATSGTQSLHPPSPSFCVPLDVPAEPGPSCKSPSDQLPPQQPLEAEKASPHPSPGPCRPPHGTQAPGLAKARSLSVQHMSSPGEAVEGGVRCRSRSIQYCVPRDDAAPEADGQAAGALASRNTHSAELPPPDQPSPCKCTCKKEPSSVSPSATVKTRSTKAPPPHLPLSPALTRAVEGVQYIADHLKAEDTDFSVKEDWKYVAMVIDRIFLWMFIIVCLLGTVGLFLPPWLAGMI
Sequence of α4β2 nAChRs (P17787 26-502): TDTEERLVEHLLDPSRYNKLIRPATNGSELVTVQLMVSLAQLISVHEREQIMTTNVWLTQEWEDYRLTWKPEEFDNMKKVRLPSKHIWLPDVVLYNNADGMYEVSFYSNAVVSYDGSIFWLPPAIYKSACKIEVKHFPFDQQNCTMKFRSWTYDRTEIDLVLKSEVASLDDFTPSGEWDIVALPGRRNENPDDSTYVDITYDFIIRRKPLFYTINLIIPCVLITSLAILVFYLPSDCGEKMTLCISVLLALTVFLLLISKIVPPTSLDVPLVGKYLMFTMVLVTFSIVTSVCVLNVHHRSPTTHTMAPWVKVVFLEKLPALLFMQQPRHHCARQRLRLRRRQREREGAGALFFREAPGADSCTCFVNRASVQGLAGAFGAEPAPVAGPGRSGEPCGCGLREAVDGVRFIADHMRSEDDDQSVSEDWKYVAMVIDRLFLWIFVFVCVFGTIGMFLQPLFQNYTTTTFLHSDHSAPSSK
Sequence of α7 (P36544 23-502): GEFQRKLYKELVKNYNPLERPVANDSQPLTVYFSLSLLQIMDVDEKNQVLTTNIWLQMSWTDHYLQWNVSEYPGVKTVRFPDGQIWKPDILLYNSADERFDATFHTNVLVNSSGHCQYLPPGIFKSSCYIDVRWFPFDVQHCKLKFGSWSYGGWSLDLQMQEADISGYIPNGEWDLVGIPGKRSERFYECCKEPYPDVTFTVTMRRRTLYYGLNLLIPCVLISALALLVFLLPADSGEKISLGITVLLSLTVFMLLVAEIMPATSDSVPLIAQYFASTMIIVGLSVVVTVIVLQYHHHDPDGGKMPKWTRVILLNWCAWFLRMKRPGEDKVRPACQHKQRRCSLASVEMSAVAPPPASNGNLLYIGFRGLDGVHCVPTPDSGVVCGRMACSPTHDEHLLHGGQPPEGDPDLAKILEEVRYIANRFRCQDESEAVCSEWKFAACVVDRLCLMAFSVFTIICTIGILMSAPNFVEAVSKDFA
Sequence of α3β4 nAChRs (P32297 32-505): as the sequence (P32297 32-505) above
Sequence of α3β4 nAChRs (P30926 22-498): as the sequence (P30926 22-498) above

For orientation: IC50 means the concentration that gives 50% inhibition. In the case of `CC1=CC(O)CC(C)(O)C=CC(C(C)C)CCC(C)=CCC1` [4R, (1S,2E,4R,6R,7E,11E)-cembra-2,7,11-triene-4,6-diol], the IC50 in [1] was 2.2 µM; in assay [2] it was 19.1 µM.
Usually Ki stands for the equilibrium dissociation constant of an inhibitor or competing ligand from its target. `CO[C@H]1CC=C2CCN3CCC4=C(CC(=O)OC4)[C@]23C1` [DHβE, Dihydro-Beta-erithroidine]: in assay [3], the Akt phosphorylation entry is “did not affect”. Further, the values for the Ki in assay [4] and in assay [5] were 218 µM and 25 to 57 µM, respectively.
As for `CCN1C[C@]2(COC(=O)c3ccccc3N3C(=O)C[C@H](C)C3=O)CC[C@H](OC)[C@@]34[C@@H]5C[C@H]6[C@H](OC)[C@@H]5[C@](O)(C[C@@H]6OC)[C@@](O)([C@@H](OC)[C@H]23)[C@@H]14` [MLA, methyllycaconitine], the “Effect on the neuroprotection caused by the substance: 10 μM PD98059” value in assay [6] was 0. In addition, the “effect of DHβE on the neuroprotection (reported)” value in assay [7] is “blocked”. In assay [7] (literature report), the “neuroprotection (reported)” value was “neuroprotective”.
Take `CC12CC3CC(C)(C1)CC(N)(C3)C2` [Memantine, memantine]: the “effect of DHβE on the neuroprotection” value in assay [6] (1 μM DHβE, 2 μM 4R) was “inhibited”. Besides, in assay [6], the “effect of nifedipine on the neuroprotection” value is “blocked” and the “Effect on the neuroprotection caused by the substance: 10 μM PD98059” value is given as 0. Also, the “effect of PD98059 on the neuroprotection” value in [6] (2 μM 4R, 1 μM nicotine) is “not inhibited”. Further, the “shape of the dose-response curve for neuroprotection” value in assay [6] (FIGS. 20A-B) is “bell-shaped”. The “concentrations of dose-dependent neuroprotection” value in assay [6] (effect decreases at higher concentrations) was “below 3 μM”. The “effect of inhibitors of PI3-kinase on the neuroprotection” value in assay [6] (inhibitors of PI3-kinase) is listed as “blocked”. For the same compound, the “Effect on the neuroprotection caused by the substance: 0.1 μM Ro31 -8220” value in [6] (main target PKC) is on record as 0. Besides, in assay [6] (vesamicol), the “effect of vesamicol on the neuroprotection” value is “blocked”. In assay [8], the IC50 was 0.34 µM. Moreover, the IC50 in [9] is 5.1 µM.
As for `CN1CCCC1c1cccnc1` (stereo not drawn) [Nicotine, nicotine], the “effect of Ro-31-8220 on the neuroprotection” value in [6] (100 nM Ro-31-8220, 2 μM 4R, 1 μM nicotine) is on record as “did inhibit”. For the same compound, in assay [6] (0.4 μM APV, 2:M 4R or 1:M nicotine), the “effect of APV on the neuroprotection” value is listed as “only a nonsignificant decrement”. In assay [6] (0.5 μM KT5720, 2 μM 4R, 1 μM nicotine), the “effect of KT5720 on the neuroprotection” value was “partially decreased”. Besides, in assay [6] (1 μM during 1 hr followed by 0.5 mM NMDA), the recovery result is “more than 80%”. Moreover, the “effect of KN-62 on the neuroprotection” value in assay [6] (9 μM KN-62) was “did not prevent a significant neuroprotection”. Further, the “effect of nifedipine on the neuroprotection” value in assay [6] is given as “did not inhibit”. In addition, the “effect of DNQX on the neuroprotection” value in assay [6] (50 μM DNQX, 2 μM 4R, 1 μM nicotine) is recorded as “recovered significantly more activity”. For the same compound, the “effect of PD98059 on the neuroprotection” value in assay [6] (2 μM 4R, 1 μM nicotine) is recorded as “annulled”. Besides, the “Effect on the neuroprotection caused by the substance: 9 μMKN-62” value in assay [6] (main target CaM kinases) stood at 0. Besides, the “Effect on the neuroprotection caused by the substance: 10 μM Nifedipine” value in assay [6] (main target L-type VGCC) stood at 0. In [6] (main target NMDA receptors), the “Effect on the neuroprotection caused by the substance: 4 μMAPV” value is 0. In addition, the “Effect on the neuroprotection caused by the substance: 50 μM Vesarnicol” value in [6] (main target Synaptic ACh release) was found to be 0. Further, the “effect of DHβE on the neuroprotection (reported)” value in [7] was “blocked”.
On to `Cn1cc(C2=C(c3ccc(Cl)cc3Cl)C(=O)NC2=O)c2ccccc21` [SB 216763], for which the neuroprotection result in [6] (100 μM applied 1 hr before or after 0.5 mM NMDA, n=21) was “neuroprotective only when applied after NMDA”.
